Assay results from US20230003721A1, “MITOTHERAPEUTICS FOR THE TREATMENT OF BRAIN DISORDERS” (The University of Florida Research Foundation, Inc., priority 2019, published 2023).
Structures can show the parent of a compound that is named as a salt. Where two headings read alike, the source gives them in different places.

What was measured:
[1] = system: primary forebrain neurons; conditions: 48 h; for live:dead cell ratio in the presence of toxic concentrations of glutamate: 25 μM glutamate; for death among neurons compared to control: Aβ(1-42) 10 μM
[2] = system: isolated forebrain mitochondria; test: ATP production of isolated mitochondria (luciferase-based kinetic assay); format: biochemical, mouse; conditions: for ATP production kinetics, amplitude of single exponential fit: 12 μM, starting 20 min after addition, DMSO 22498±358; for ATP production of isolated mitochondria (direct effect): 12.5 μM, within the 45-min measurement period, vs DMSO
Experimental: Isolation of mitochondria. For the ATP synthesis experiments of FIG. 6, forebrains from P0 pups were dissected as described above. 2×10^7 cells were harvested for high-purity mitochondrial isolation using the Qiagen QProteome kit. The mitochondrial pellet was resuspended in 500 μl mitochondria storage buffer (provided by kit) and kept on ice until further use.
ATP production of isolated forebrain mitochondria of P0 pups was measured by ATP Determination Kit (Molecular Probes). […] The reactions were initiated by the addition of 1 mM ADP (deprived of ATP contamination by adding 3 U/ml hexokinase to 10 mM of ADP in 50 mM Tris-HCl, 20 mM MgCl2 and 22 mM glucose, incubating the solution at 37° C. for 1 hr and heat inactivating the hexokinase at 100° C. for 3 min). Luminescence was recorded every 15-30 sec for 1 hr at 580±40 nm.

[3] = system: primary forebrain neurons; test: cells; conditions: for EC50: Mus musculus, Neuron; for EC50 / Dendritic Mt CA / Neurite Area: 24 h; for Dendritic Mt CA / Neurite Area: rescreen, 12.5 μM, vs DMSO wells
Experimental: Primary forebrain cell culture and maintenance. Forebrains of P0 Mt or Mt/Ai14 pups without olfactory bulbs and meninges were collected and placed in ice cold Ca^2+ and Mg^2+ free HBSS supplemented with 2 μg/ml gentamicin, 25 mM D-glucose, 1 mM pyruvate and 20 mM HEPES. Brain tissue was digested with 0.6 mg/ml papain at 37° C. for 20 min. Forebrains were washed with plating media [Neurobasal (Gibco), 5% FBS, 4 mM GlutaMAX (Gibco), 2 μg/ml gentamicin]. The tissue was gently triturated, allowed to settle and the supernatant was filtered through a 40 μm mesh-sized cell strainer. Cells were centrifuged at 420×g for 4 min and resuspended in plating media. 15,000 cells per well were plated with 2×10^8 viral particles/ml onto black Greiner μClear (Cat #781946) or Ultra-Low Base Aurora with evaporation barrier (Cat #ABE201201B) 384-well plates (80 μl/well) pre-coated with poly-D-lysine for the primary screen and rescreen, respectively. Plating and media changes were performed using an automated Biomek FX^P liquid handling workstation. Four hr after plating, 75% of the plating media was replaced by feeding media [Neurobasal-A (Gibco), 4 mM GlutaMAX (Gibco), 2 μg/ml gentamicin, 2% B27 (Gibco)]. At DIV4, 50% of the media was exchanged with fresh feeding media supplemented with 16 μM 5-Fluoro-2′-deoxyuridine (FUdR) to prevent glial cell over-growth. At DIV8 and DIV12, additional 50% media changes were made without FUdR. Cells were maintained at 37° C. and 5% CO2; plates were topped with Breathe-Easy adhesive membranes (Greiner plates) to minimize evaporation.
Compounds and compound transfer.
Imaging. Images were captured using a GE Incell 6000 system (60× objective, 0.95 NA, 16-bit images) equipped with environmental control (37° C., 5% CO2). Mt-GFP (green channel) was imaged by confocal imaging (3 slices, Δz=0.7 μm, aperture=1.0 AU, λexc=488 nm, λem=515-535 nm). Cyto-tdTomato (red channel) and MitoTracker Orange (red channel) were imaged using confocal mode (3 slices, Δz=0.7 μm, aperture=1.0 AU, λexc=561 nm, λem=569-641 nm, MitoTracker Orange) or with widefield mode (Cyto-tdTomato). TMRM imaged for the co-localization experiments with Mt-GFP was imaged using the confocal mode (3 slices, […] aperture=1.0, λexc=488, λem=569-641 nm). For the live-dead assay, primary neurons were imaged with a 20× (widefield mode, NA 0.45) objective using λexc=561 nm and λem=569-641 nm for the propidium iodide stained dead cells (red channel), and λexc=488 nm and λem=515-535 nm for the fluorescein diacetate stained live cells (green channel). 10 fields were collected from each well, and 4 wells were imaged/condition in the live-dead assay. For all other experiments, 4 fields/well were imaged unless otherwise stated.
Automated data analysis pipeline. Most experiments utilized only Mt-GFP; some utilized both Mt-GFP and Cyto-tdTomato. The Z-projected images were preprocessed using a custom Fiji macro. For preprocessing of Mt-GFP images: background was subtracted (rolling ball, radius=3), images were median filtered (radius=1) and somatic mitochondria were removed. For removal of the somatic mitochondria, they were first segmented and then a somatic mitochondrial mask overlaid on the image.

[4] = system: primary neurons; conditions: for protection from peroxide (PO) induced mitochondrial fragmentation: 75 μM peroxide
[5] = system: primary neurons; test: TMRM fluorescence assay of inner mitochondrial membrane potential (ΔΨm); conditions: for TMRM Primary: primary screen, 12.5 μM; for TMRM Primary / TMRM Rescreen: 24 h; for Emax / EC50: Mus musculus, Primary neuron; for Emax: read-out: TMRM (Effect-size); for EC50: read-out: TMRM-EC50
[6] = system: primary neurons; test: CellTiter-Glo luminescence-based ATP assay; format: cell-based, mouse; conditions: for ATP: ATP orthogonal screen, 24 h; for EC50 / Emax: Mus musculus, Primary neuron, dose response; for EC50: 15 concentrations from 6 nM to 100 uM; for Emax: maximal percent increase relative to in-plate DMSO controls, read-out: ATP (Effect-size)
How it was run: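 Primary neurons treated from DIV13 for 24 h with compound or DMSO. After part of the medium was removed, CellTiter-Glo reagent was added; plates were shaken 10 min at 200 rpm, kept 2 min in the dark at room temperature, and luminescence read as total ATP.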

[7] = system: Drosophila model for AD; test: Drosophila model for AD: neuronal mitochondrial morphology; format: in vivo; conditions: cell bodies of neurons; 100 micromolar, 15 days-of-age
Description: To assay representative compounds in this example, we employed a Drosophila model for AD (X. Wang et al., Mol. Neurobiol. […] Flies expressing this toxic protein show: […] Drugs that show efficacy therefore: enlarge neuronal mitochondria (increased volume, increased surface area, increased length), reduce sphericity, and reduce the number of mitochondria compared to untreated Alzheimer's flies. The AD model flies were collected immediately after eclosion from the pupal case and transferred to food that was laced with drug at 100 micromolar concentration. The flies were aged to 15 days-of-age: this is when the mitochondrial pathology is very robust. We compared the morphology of mitochondria collected from these flies treated with drug and compared them to the mitochondria of flies that remained untreated.

[8] = read-out: Health (Ax Mt Circularity) EC50
[9] = read-out: Sprouting (Neurite Area) EC50
[10] = read-out: Elongation (Dend Mt length) EC50
[11] = read-out: Mt Content (Dend Mt CA) EC50
[12] = peroxide 75 μM, glutamate 25 μM

EC50 [5] | Compound | live:dead cell ratio in the presence of toxic concentrations of glutamate [1] | ATP production kinetics, amplitude of single exponential fit [2] | ATP production of isolated mitochondria (direct effect) [2] | EC50 [3, 8] | EC50 [3, 9] | Dendritic Mt CA [3] | Neurite Area [3] | EC50 [3, 11] | protection from peroxide (PO) induced mitochondrial fragmentation ([4]; 12.5 μM compound, 48 h) | TMRM Primary [5] | TMRM Rescreen [5] | ATP [6] | Emax [5] | EC50 [6] | Emax [6] | other results
– | O=C(/C=C/c1ccccc1)c1ccc(O)cc1O [2′,4′-DIHYDROXYCHALCONE] | offered protection | 9853±132 | decreased | 6700 nM | > 25000 nM | 3.39 robust Z-scores | 0.42 robust Z-scores | – | – | – | – | – | – | – | – | –
– | O=C(/C=C/c1ccccc1)c1ccc(O)cc1 [4′-HYDROXYCHALCONE] | offered protection | 6121±99 | decreased | 5800 nM | 900 nM | 5.11 robust Z-scores | 2.21 robust Z-scores | 4800 nM | fully protected | – | – | – | – | – | – | EC50 [3, 10]: 2300 nM
– | CCN(CCCc1ccccc1)CCCc1ccccc1 [ALVERINE CITRATE] | offered protection | 28383±278 | significantly increased | 300 nM | > 25000 nM | 5.09 robust Z-scores | −1.50 robust Z-scores | 200 nM | fully protected | 4.24 Z-scores | 4.15 Z-scores | 4.56 Z-scores | – | – | – | ATP production in neurons ([6]; after 24 hr of treatment): increased; EC50 [3, 10]: 2900 nM; protection from glutamate (GLUT) induced mitochondrial fragmentation ([4]; 25 μM glutamate, 12.5 μM compound, 48 h): fully protected
– | N#CC(C#N)=NNc1ccc(OC(F)(F)F)cc1 [FCCP, carbonyl cyanide-p-trifluoromethoxyphenylhydrazone] | – | 17958±216 | – | – | – | – | – | – | – | – | – | – | – | – | – | average area of axonal mitochondria [3]: 0.39 μm^2; average area of dendritic mitochondria [3]: 1.06 μm^2; average well axonal mitochondrial CA [3]: 629±83 μm^2; average well dendritic mitochondrial CA [3]: 123±44 μm^2; increase in axonal mitochondrial CA [3]: 225 μm^2; median axonal mitochondrial circularity [3]: 0.94±0.004; median dendritic mitochondrial length [3]: 2.77±0.07 μm; number of axonal mitochondria [3]: 51767; number of dendritic mitochondria [3]: 3713; sum of dendritic and axonal mitochondrial CA [3]: 754 μm^2; reduction in the average dendritic mitochondrial CA per well ([3]; FCCP treatment vs DMSO): ~90%
350 nM | COc1ccccc1OCCNCC(O)COc1cccc2[nH]c3ccccc3c12 (stereo not shown) [carvedilol] | – | – | – | – | – | – | – | – | – | 4.11 Z-scores | 5.71 Z-scores | 5.32 Z-scores | 20.2% | 230 nM | 15.9% | Surface area of mitochondria, p (treated vs untreated) [7]: p = 0.078
– | N[C@@H](CCC(=O)O)C(=O)[O-].[Na+] [glutamate, monosodium glutamate] | – | – | – | – | – | – | – | – | – | – | – | – | – | – | – | death among neurons compared to control [1, 12]: 42%; live cell ratio (live cells/live+dead cells) ([1]; peroxide 75 μM, glutamate 25 μM, control 0.57): 0.26
130 nM | O=c1[nH]c2ccccc2n1C1CCN(CCCC(c2ccc(F)cc2)c2ccc(F)cc2)CC1 [pimozide] | – | – | – | – | – | – | – | – | – | 2.65 Z-scores | 3.74 Z-scores | 6.60 Z-scores | 25.1% | 90 nM | 20.4% | Surface area of mitochondria, p (treated vs untreated) [7]: p = 0.017
– | Aβ(1-40): less-toxic oligomeric amyloid-β peptide used as control | – | – | – | – | – | – | – | – | – | – | – | – | – | – | – | mitochondrial fragmentation caused by oligomeric peptide [4]: failed to cause mitochondrial fragmentation
– | Aβ(1-42): toxic amyloid-β peptide fragment, oligomeric, HFIP-treated peptide (BACHEM) | – | – | – | – | – | – | – | – | – | – | – | – | – | – | – | death among neurons compared to control [1, 12]: no detectable death

Compound | EC50 [5] | live:dead cell ratio in the presence of toxic concentrations of glutamate [1] | ATP production kinetics, amplitude of single exponential fit [2] | ATP production of isolated mitochondria (direct effect) [2] | EC50 [3, 8] | EC50 [3, 9] | Dendritic Mt CA [3] | Neurite Area [3] | EC50 [3, 11] | protection from peroxide (PO) induced mitochondrial fragmentation ([4]; 12.5 μM compound, 48 h) | TMRM Primary [5] | TMRM Rescreen [5] | ATP [6] | Emax [5] | EC50 [6] | Emax [6] | other results
COc1ccccc1N1CCN(CC(O)COc2cccc3ccccc23)CC1 (stereo not shown) [NAFTOPIDIL] | 2240 nM | – | 49917±838 | significantly increased | 200 nM | 500 nM | 4.86 robust Z-scores | 2.41 robust Z-scores | 100 nM | fully protected | 3.64 Z-scores | 9.07 Z-scores | 3.62 Z-scores | 18.8% | 230 nM | 15% | –
